Patent publication US10968214B2, “KRas G12C inhibitors” (Eli Lilly and Company, priority 2018, dated 2021)
Like-named read-outs stand apart in the source and are kept apart here.

Experiments:
[1] = biological target: T1, active KRas in H358 xenograft tumors (Homo sapiens, UniProt P01116, G12C); assay: In vivo target inhibition/PD, H358 xenograft, active KRas; set-up: species or system mouse; details: for inhibition at 10 mg/kg: 10 mg/kg single dose; for inhibition at 30 mg/kg: 30 mg/kg single dose
T1 construct: from tissue; host or cells: H358 xenograft tumours from nude mice
T1 sequence (P01116 1-188 isoform P01116-2 G12C): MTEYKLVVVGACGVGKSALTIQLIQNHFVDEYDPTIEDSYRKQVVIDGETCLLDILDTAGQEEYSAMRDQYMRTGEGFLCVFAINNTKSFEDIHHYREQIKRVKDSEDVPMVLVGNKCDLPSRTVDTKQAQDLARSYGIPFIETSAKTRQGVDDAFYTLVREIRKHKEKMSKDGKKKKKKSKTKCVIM
Protocol: To evaluate in vivo target inhibition and anti-tumor efficacy of a compound, Human lung cancer cells, H358 or H2122 are implanted into nude mice xenograft tumor models. Either H358 or H2122 cells (10×10^6 in a 1:1 Matrigel® mix, 0.2 mL total volume) are implanted by subcutaneous injection in hind leg of nude female mice (Harlan Laboratories). A total of 5 mice each group are used for efficacy study, and a total of 3-4 mice each group are used for target engagement and PD study. Treatment is initiated with oral administration (gavage) of a test compound or vehicle (20% Captisol®, 25 mM phosphate, pH 2.0 in 0.2 mL volume when the tumor size reaches approximately […]. Tumor growth and body weight are monitored over time to evaluate efficacy and signs of toxicity. Bidimensional measurements of tumors are performed twice a week and tumor volumes are calculated based on mid-axis length and mid-axis width. Tumor volume data are transformed to a log scale to equalize variance across time and treatment groups. The log volume data are analyzed with a two-way repeated measures analysis of variance by time and treatment using the mixed procedures in SAS software (version 8.2). The correlation model for the repeated measures is spatial power. Treated groups are compared to the control group at each time point. The mixed procedure is also used separately for each treatment group to calculate adjusted means and standard errors at each time point. Both analyses account for the autocorrelation within each animal. The adjusted means and standard errors are plotted for each treatment group versus time.
For in vivo target inhibition and PD analysis, tumors are ground by mortar and pestle on dry ice and tumor fragments are added to 800 μL of lysis buffer containing 1% Triton X100, 25 mM Tris pH 7.5, 150 mM NaCl, 1 mM EDTA, and 1 mM EGTA with Halt protease and phosphatase inhibitor cocktail (Thermo Scientific, cat. no. 1861281) in lysing matrix D tubes (MP Biomedical®, cat. no. 6913-500) with one additional large bead (MP Biomedical® ¼″ ceramic sphere bead cat. no. 6540-412) per tube. Tumor fragments are homogenized in a Thermo Bio101® fast prep (FP120) at setting 4 for […] while cold for a total of 2 times. Lysates are spun at 14,000 rpm for 10 min at 4° C. to clarify. Protein estimation is done on the lysate supernatant using a BioRad Dc® protein assay and lysates are diluted in complete lysis/binding buffer from the Ras GTPase Chemi ELISA Kit® (Active Motif, cat. no. 52097). The active KRas ELISA was performed as follows: Glutathione-coated ELISA wells were incubated with diluted RAF1-GST in complete lysis/binding buffer for 1 hr at 4° C. with gentle agitation. Wells are washed 3 times with wash buffer and 100 μg of lysates are added to each well and incubated at RT for 1 hr with mild agitation. The wells are washed an additional 3 times, then primary antibody, diluted in antibody binding buffer, is added to each well. The plates are incubated for 1 hr. The wells are washed 3 more times before adding HRP-conjugated secondary antibody, diluted in antibody binding buffer, to each well. The plates are incubated at RT for 1 hr. ELISA wells are washed 4 times, chemiluminescent reagents is added and then luminescence is read. For pERK Meso Scale Discovery ELISA, 25 μg of protein containing 0.1% SDS is used; for pMEK Meso Scale Discovery ELISA, 50 μg of protein without SDS is used. Meso Scale Discovery Whole Cell Lysate Kits for pERK and pMEK are provided by Meso Scale Discovery.
The tumor samples are collected 4 hr post a single dose. The tumor lysates are prepared and the inhibition of pERK, pMEK, and active KRas is measured as described above.
After a single dose, the tumor samples are harvested at 2, 4, 8, 12 and 24 hr post doing. The tumor lysates are prepared and the inhibition of pERK, pMEK, and active KRas is measured as described above.

HCC44 xenograft = assay: Anti-tumor growth activity, HCC44 lung xenograft; assay type: in vivo; details: 28 Day, negative = regression
Calu-1 = assay: CellTiterGlo Cell Proliferation Assay, Calu-1; assay type: cell-based; details: Homo sapiens, KRas G12C, Lung, 96 hr
Protocol: A panel of tumor cell lines harboring KRas G12C or other KRas mutations are collected (Table 6). All cell lines are from ATCC or other sources indicated.
Typically cells are cultured in RPMI1640 or Dulbecco's modified Eagle's medium (DMEM, GIBCO) supplemented with 10% FBS (GIBCO, Invitrogen). For 2D culture cells (4×10^3/well) maintained in growth medium described above, are plated onto 96 well tissue culture plates Corning® Cat. 3603) a day before the treatment. For 3D culture 8000 cells/well are seeded onto 96 well ultra-low attachment tissue culture plates (Corning, #3474). The cells are treated compound for 96 hr, and then are analyzed for viability using the CellTiterGlo® Luminescent Cell Viability Assay® (Promega #G7572 for 2D and Promega #G9683 for 3D cultures) according to manufacturer's instructions and an EnVision™ plate reader. Nonlinear regression and sigmoidal dose-response curves are used to calculate the half maximal inhibitory concentration (IC50) with GraphPad Prism 4® software.

[2] = NCI-H358, mouse, 4 hr post dose, read-out: % Inhibition Active KRas
[3] = NCI-H358, mouse, time course, 2 hr, read-out: % Inhibition Active KRas
[4] = NCI-H358, mouse, time course, 4 hr, read-out: % Inhibition Active KRas
[5] = NCI-H358, mouse, time course, 8 hr, read-out: % Inhibition Active KRas
[6] = NCI-H358, mouse, time course, 12 hr, read-out: % Inhibition Active KRas
[7] = NCI-H358, mouse, time course, 24 hr, read-out: % Inhibition Active KRas

C=CC(=O)N1CCN(c2ncnc3c(F)c(-c4ccc(F)c5sc(N)nc45)c(Cl)cc23)CC1 [Example 1, 1-{4-[7-(2-Amino-7-fluoro-1,3-benzothiazol-4-yl)-6-chloro-8-fluoroquinazolin-4-yl]piperazin-1-yl}prop-2-en-1-one]
inhibition at 1 mg/kg ([1]; NCI-H358, mouse, 1 mg/kg single dose, 4 hr post dose): -1.9% | inhibition at 3 mg/kg ([1]; NCI-H358, mouse, 3 mg/kg single dose, 4 hr post dose): -2.9% | inhibition at 10 mg/kg [1, 2]: 40.9% | inhibition at 10 mg/kg ([1]; NCI-H358, mouse, from 2-24 hr, read-out: active Kras inhibition): 21 to 61% | inhibition at 30 mg/kg [1, 2]: 83.2% | inhibition at 30 mg/kg ([1]; NCI-H358, mouse, from 2-24 hr, read-out: active KRas inhibition): 29 to 70% | inhibition at 100 mg/kg ([1]; NCI-H358, mouse, 100 mg/kg single dose, 4 hr post dose): 87.4% | inhibition at 10 mg/kg [1, 3]: 26.1% | inhibition at 10 mg/kg [1, 4]: 32.9% | inhibition at 10 mg/kg [1, 5]: 30% | inhibition at 10 mg/kg [1, 6]: 61.1% | inhibition at 10 mg/kg [1, 7]: 21.5% | inhibition at 30 mg/kg [1, 3]: 70.4% | inhibition at 30 mg/kg [1, 4]: 65% | inhibition at 30 mg/kg [1, 5]: 66.5% | inhibition at 30 mg/kg [1, 6]: 28.7% | inhibition at 30 mg/kg [1, 7]: 37.7% | EC50 ([1]; plasma exposure by mass spectrum, read-out: plasma concentration to achieve 50% target inhibition (TEC50), active KRas): 574 nM | dose to achieve 50% target inhibition (TED50), active KRas ([1]; single dose, 4 hr): 11.2 mg/kg | Tumor Growth Inhibition (%) or Regression (−%) (HCC44 xenograft; 15 mg/kg BID): 93.4% | Tumor Growth Inhibition (%) or Regression (−%) (HCC44 xenograft; 30 mg/kg BID): −16.5% | Tumor Growth Inhibition (%) or Regression (−%) (HCC44 xenograft; 30 mg/kg QD): 85.4% | IC50 (Calu-1; read-out: IC50 (μM) in 2 D cell proliferation): 0.024 µM | IC50 (Calu-1; read-out: IC50 (μM) in 3 D spheroid cell proliferation): 0.001 µM
